Test results from patent US9586978B2, “Anti-viral compounds” (AbbVie Inc., priority 2009, dated 2017).
Where two headings read alike, the source gives them in different places.

Columns and labels:
HCV genotype 1a replicon = HCV genotype 1a replicon assay; type: cell-based, Hepatitis C virus; settings: Hepatitis C virus
Description: (§1) [drawing 14] employs a biphenyl linker between the imidazole moieties. See WO2008021927(BMS). The EC50 values of BMS-790052 against different HCV genotypes were shown by Nettles et al., “BMS-790052 is a First-in-class Potent Hepatitis C Virus (HCV) NS5A Inhibitor for Patients with Chronic HCV Infection: Results from a Proof-of-concept Study”, 59th Annual Meeting of the American Association for the Study of Liver Diseases (Oct. 31-Nov. 1, 2008, San Francisco, Calif.; www.natap.org/2008/AASLD/AASLD_06.htm). […] See also Gao et al., NATURE 465:96-100 (2010). The compounds in Table 1 use different linkers between the imidazole moieties. Table 1 depicts the EC50 values of these compounds when tested using respective replicon assays in the presence of 5% (v/v) fetal bovine serum (FBS).
(§2) Table 2 compares compounds containing unsubstituted benzimidazole to those containing halo-substituted benzimidazole. Anti-viral activities were assessed using wild-type replicons (e.g., 1b WT or 1a WT) as well as replicons containing specific NS5A mutations (e.g., 1b L28T, 1b Y93H, 1a L31V, 1a Y93C, 1a M28V, or 1a Q30E) in the absence of FBS.
(§3) Table 3 compares compounds with different linkers between the benzimidazole moieties. Anti-viral activities were determined using 1a and 1b replicon assays. “HP” refers to human plasma. […] As compared to the phenyl linker

HCV genotype 1b replicon = HCV genotype 1b replicon assay; type: cell-based, Hepatitis C virus; settings: Hepatitis C virus
Description: as §1, §2, §3

HCV genotype 2a replicon = HCV genotype 2a replicon assay; type: cell-based, Hepatitis C virus; settings: Hepatitis C virus, absence of human plasma; Table 5; read-out: EC50 (nM, in the absence of HP) 2a
Description: as §1

HCV genotype 2b replicon = HCV genotype 2b replicon assay; type: cell-based, Hepatitis C virus; settings: Hepatitis C virus, absence of human plasma; Table 5; read-out: EC50 (nM, in the absence of HP) 2b
Description: as §1

HCV genotype 3a replicon = HCV genotype 3a replicon assay; type: cell-based, Hepatitis C virus; settings: Hepatitis C virus, read-out: EC50 (nM, in the absence of HP) 3a, absence of human plasma; Table 5
Description: as §1

HCV genotype 4a replicon = HCV genotype 4a replicon assay; type: cell-based, Hepatitis C virus; settings: Hepatitis C virus, absence of human plasma; Table 5; read-out: EC50 (nM, in the absence of HP) 4a
Description: as §1

[1] = system: HCV 2a, 2b, 3a and 4a replicon; assay: HCV 2a, 2b, 3a and 4a replicon assays in the absence of human plasma; type: cell-based; settings: 3a and 4a replicons
Experimental: The inhibitory effects of the compounds of the invention on HCV replication can be determined by measuring activity of the luciferase reporter gene. For example, replicon-containing cells can be seeded into 96 well plates at a density of 5000 cells per well in 100 μl DMEM containing 5% FBS. The following day compounds can be diluted in dimethyl sulfoxide (DMSO) to generate a 200× stock in a series of eight half-log dilutions. The dilution series can then be further diluted 100-fold in the medium containing 5% FBS. Medium with the inhibitor is added to the overnight cell culture plates already containing 100 μl of DMEM with 5% FBS. In assays measuring inhibitory activity in the presence of human plasma, the medium from the overnight cell culture plates can be replaced with DMEM containing 40% human plasma and 5% FBS. The cells can be incubated for three days in the tissue culture incubators after which time 30 μl of Passive Lysis buffer (Promega) can be added to each well, and then the plates are incubated for 15 minutes with rocking to lyse the cells. Luciferin solution (100 μl, Promega) can be added to each well, and luciferase activity can be measured with a Victor II luminometer (Perkin-Elmer). The percent inhibition of HCV RNA replication can be calculated for each compound concentration and the EC50 value can be calculated using nonlinear regression curve fitting to the 4-parameter logistic equation and GraphPad Prism 4 software.

[2] = system: HCV 1b replicon containing NS5A mutation L28T; assay: HCV 1b L28T replicon assay; type: cell-based; settings: Hepatitis C virus, read-out: EC50 (nM) 1b L28T
Experimental: as §2

[3] = system: HCV 1b replicon containing NS5A mutation Y93H; assay: HCV 1b Y93H replicon assay; type: cell-based, Hepatitis C virus; settings: Hepatitis C virus, read-out: EC50 (nM) 1b Y93H
Experimental: as §2

[4] = system: HCV 1a replicon containing NS5A mutation L31V; assay: HCV 1a L31V replicon assay; type: cell-based, Hepatitis C virus; settings: for EC50: Hepatitis C virus, read-out: EC50 (nM) 1a L31V
Experimental: as §2

[5] = system: HCV 1a replicon containing NS5A mutation Y93C; assay: HCV 1a Y93C replicon assay; type: cell-based; settings: Hepatitis C virus, read-out: EC50 (nM) 1a Y93C
Experimental: as §2

[6] = system: HCV 1a replicon containing NS5A mutation M28V; assay: HCV 1a M28V replicon assay; type: cell-based; settings: Hepatitis C virus, read-out: EC50 (nM) 1a M28V
Experimental: as §2

[7] = system: HCV 1a replicon containing NS5A mutation Q30E; assay: HCV 1a Q30E replicon assay; type: cell-based; settings: Hepatitis C virus, read-out: EC50 (nM) 1a Q30E
Experimental: as §2

HCV 1b-Con1 replicon = HCV 1b-Con1 replicon assay in the presence of 5% FBS (luciferase reporter); type: cell-based; settings: Hepatitis C virus
[8] = 40% human plasma, Table 5, read-out: EC50 (nM, in the presence of 40% HP) 1a
[9] = 40% human plasma, Table 5, read-out: EC50 (nM, in the presence of 40% HP) 1b
[10] = wild-type replicon, in the absence of FBS, read-out: EC50 (nM) 1a WT
[11] = wild-type replicon, in the absence of FBS, read-out: EC50 (nM) 1b WT

| SMILES | EC50 (HCV genotype 1a replicon; [10]) | EC50 (HCV genotype 1b replicon; [11]) | EC50 [2] | EC50 [3] | EC50 [4] | EC50 [5] | EC50 [6] | EC50 [7] | EC50 (HCV 1b-Con1 replicon) | other results |
| --- | --- | --- | --- | --- | --- | --- | --- | --- | --- | --- |
| COC(=O)N[C@H](C(=O)N1CCC[C@H]1c1nc2cc([C@H]3CC[C@H](c4ccc5[nH]c([C@@H]6CCCN6C(=O)[C@@H](NC(=O)OC)C(C)C)nc5c4)N3c3ccc(N4CCC(c5ccccc5)CC4)cc3)ccc2[nH]1)C(C)C [Example 4.25] | – | – | – | – | – | – | – | – | – | EC50 (HCV genotype 1a replicon; [8]): 1.5 nM; EC50 (HCV genotype 1b replicon; [9]): 1.5 nM; EC50 (HCV genotype 2a replicon): 0.5 nM; EC50 (HCV genotype 2b replicon): 0.5 nM; EC50 (HCV genotype 3a replicon): 0.5 nM; EC50 (HCV genotype 4a replicon): 0.2 nM; EC50 ([1]; Hepatitis C virus, absence of human plasma): 0.2 to 0.5 nM |
| COC(=O)N[C@H](C(=O)N1CCC[C@H]1c1nc2cc(F)c(-c3ccc(-c4cc5[nH]c([C@@H]6CCCN6C(=O)[C@@H](NC(=O)OC)C(C)C)nc5cc4F)cc3)cc2[nH]1)C(C)C | 0.14 nM | 0.003 nM | 1.8 nM | 0.5 nM | 109 nM | 26 nM | 2.4 nM | 119 nM | – | – |
| COC(=O)N[C@H](C(=O)N1CCC[C@H]1c1nc2c(F)cc(-c3ccc(-c4cc(F)c5nc([C@@H]6CCCN6C(=O)[C@@H](NC(=O)OC)C(C)C)[nH]c5c4)cc3)cc2[nH]1)C(C)C | 0.26 nM | 0.004 nM | 4.3 nM | 2.4 nM | 5.5 nM | 34 nM | 1.8 nM | 59 nM | – | – |
| COC(=O)N[C@H](C(=O)N1CCCC1c1nc2cc([C@H]3CCC(c4cc5nc([C@@H]6CCCN6C(=O)[C@@H](NC(=O)OC)C(C)C)[nH]c5cc4F)N3c3cnc(N4CCC(c5ccccc5)CC4)nc3)c(F)cc2[nH]1)C(C)C (stereo in doubt) [Example 3.46, methyl{(2S)-1-[(2S)-2-(6-fluoro-5-{(2R,5S)-5-{6-fluoro-2-[(2S)-1-{(2S)-2-[(methoxycarbonyl)amino]-3-methylbutanoyl}pyrrolidin-2-yl]-1H-benzimidazol-5-yl}-1-[2-(4-phenylpiperidin-1-yl)pyrimidin-5-yl]pyrrolidin-2-yl}-1H-benzimidazol-2-yl)pyrrolidin-1-yl]-3-methyl-1-oxobutan-2-yl}carbamate] | – | – | – | – | – | – | – | – | < 0.1 nM | – |
| COC(=O)N[C@H](C(=O)N1C(c2nc3cc([C@H]4CC[C@H](c5ccc6[nH]c([C@@H]7C[C@@H]8CCC[C@@H]8N7C(=O)[C@@H](NC(=O)OC)C(C)C)nc6c5)N4c4ccc(C(C)(C)C)cc4)ccc3[nH]2)C[C@@H]2CCC[C@@H]21)C(C)C (stereo partly drawn) [Example 4.19, methyl{(2S)-1-[(2S,3aS,6aS)-2-{5-[(2R,5R)-1-(4-tert-butylphenyl)-5-{2-[(3aS,6aS)-1-{(2S)-2-[(methoxycarbonyl)amino]-3-methylbutanoyl}octahydrocyclopenta[b]pyrrol-2-yl]-1H-benzimidazol-5-yl}pyrrolidin-2-yl]-1H-benzimidazol-2-yl}hexahydrocyclopenta[b]pyrrol-1(2H)-yl]-3-methyl-1-oxobutan-2-yl}carbamate] | – | – | – | – | – | – | – | – | < 0.1 nM | – |
| COC(=O)N[C@H](C(=O)N1CCCC1c1nc2c(F)cc(-c3ccc(-c4cc(F)c5nc([C@@H]6CCCN6C(=O)[C@@H](NC(=O)OC)C(C)C)[nH]c5c4)cc3)cc2[nH]1)C(C)C (some centres unmarked) | – | – | – | – | – | – | – | – | – | activity against HCV variants containing NS5A mutations (e.g., 1a L31V) ([4]; compared with unsubstituted benzimidazole reference compound of Table 2): better activity |
| COC(=O)N[C@H](C(=O)N1CCC[C@H]1c1nc2ccc(-c3ccc(-c4ccc5nc([C@@H]6CCCN6C(=O)[C@@H](NC(=O)OC)C(C)C)[nH]c5c4F)cc3)c(F)c2[nH]1)C(C)C | 0.1 nM | 0.007 nM | > 10 nM | 3.6 nM | 80 nM | 141 nM | 5.8 nM | 52 nM | – | – |
| COC(=O)N[C@H](C(=O)N1CCC[C@H]1c1nc2cc(F)c(-c3ccc(-c4c(F)cc5nc([C@@H]6CCCN6C(=O)[C@@H](NC(=O)OC)C(C)C)[nH]c5c4F)cc3)c(F)c2[nH]1)C(C)C | 0.28 nM | 0.005 nM | > 10 nM | 5.7 nM | 33 nM | 103 nM | 11.6 nM | 306 nM | – | – |
| CC(C)(C)OC(=O)NCC(=O)N1CCC[C@H]1c1nc2cc([C@@H]3CC[C@@H](c4ccc5[nH]c([C@@H]6CCCN6C(=O)CNC(=O)OC(C)(C)C)nc5c4)N3c3ccc(N4CCCCC4)c(F)c3)ccc2[nH]1 [Example 3.14, tert-butyl {2-[(2S)-2-(5-{(2S,5S)-5-{2-[(2S)-1-{[(tert-butoxycarbonyl)amino]acetyl}pyrrolidin-2-yl]-1H-benzimidazol-5-yl}-1-[3-fluoro-4-(piperidin-1-yl)phenyl]pyrrolidin-2-yl}-1H-benzimidazol-2-yl)pyrrolidin-1-yl]-2-oxoethyl}carbamate] | – | – | – | – | – | – | – | – | > 10000 nM | – |
| COC(=O)NC(C(=O)N1CCCC1c1nc2cc(-c3ccc(-c4ccc5[nH]c([C@@H]6CCCN6C(=O)[C@@H](NC(=O)OC)C(C)C)nc5c4)cc3)ccc2[nH]1)C(C)C (some centres unmarked) | 0.09 nM | 0.01 nM | 2.7 nM | 0.9 nM | 36 nM | 40 nM | 1 nM | 40 nM | – | – |
| COC(=O)N[C@H](C(=O)N1CCC[C@H]1c1nc2cc(C3CC[C@H](c4cc5nc([C@@H]6CCCN6C(=O)[C@@H](NC(=O)OC)C(C)C)[nH]c5cc4F)N3c3cc(F)c(N4CC(C)CC(C)C4)c(F)c3)c(F)cc2[nH]1)C(C)C (stereo partly drawn) [Example 2.16, methyl{(2S)-1-[(2S)-2-{5-[(5R)-1-[4-(3,5-dimethylpiperidin-1-yl)-3,5-difluorophenyl]-5-{6-fluoro-2-[(2S)-1-{(2S)-2-[(methoxycarbonyl)amino]-3-methylbutanoyl}pyrrolidin-2-yl]-1H-benzimidazol-5-yl}pyrrolidin-2-yl]-6-fluoro-1H-benzimidazol-2-yl}pyrrolidin-1-yl]-3-methyl-1-oxobutan-2-yl}carbamate] | – | – | – | – | – | – | – | – | < 0.1 nM | – |
| COC(=O)N[C@H](C(=O)N1CCC[C@H]1c1nc2cc([C@H]3CC[C@H](c4ccc5[nH]c([C@@H]6CCCN6C(=O)[C@@H](NC(=O)OC)C(C)C)nc5c4)N3c3ccc(N4CCC(c5ccccc5)CC4)c(F)c3)ccc2[nH]1)C(C)C [Example 3.20, methyl{(2S)-1-[(2S)-2-{5-[(2R,5R)-1-[3-fluoro-4-(4-phenylpiperidin-1-yl)phenyl]-5-{2-[(2S)-1-{(2S)-2-[(methoxycarbonyl)amino]-3-methylbutanoyl}pyrrolidin-2-yl]-1H-benzimidazol-5-yl}pyrrolidin-2-yl]-1H-benzimidazol-2-yl}pyrrolidin-1-yl]-3-methyl-1-oxobutan-2-yl}carbamate] | – | – | – | – | – | – | – | – | – | EC50 (HCV genotype 1a replicon; [8]): 0.5 nM; EC50 (HCV genotype 1b replicon; [9]): 0.6 nM; EC50 (HCV genotype 2a replicon): ≤ 0.05 nM; EC50 (HCV genotype 2b replicon): ≤ 0.05 nM; EC50 (HCV genotype 3a replicon): ≤ 0.05 nM; EC50 (HCV genotype 4a replicon): ≤ 0.05 nM; EC50 values, fold less than those of Example 4.25 ([1]; absence of HP, versus Example 4.25): at least 15 fold |
